Assay results from patent US4443436A, “C-20-Modified macrolide derivatives of the macrolide antibiotics tylosin, desmycosin, macrocin, and lactenocin” (Eli Lilly and Company, priority 1982, dated 1984).
≈ marks a conversion by molar mass, not a printed value. Where two headings read alike, the source gives them in different places.

Assays:
[1] = test system: Staphylococcus epidermidis EPI1; test: MIC, standard agar-dilution assay, Staphylococcus epidermidis EPI1; type: cell-based
[2] = test system: Staphylococcus epidermidis EPI2; test: MIC, standard agar-dilution assay, Staphylococcus epidermidis EPI2; type: cell-based
[3] = test system: Staphylococcus aureus V41; test: MIC, standard agar-dilution assay, Staphylococcus aureus V41; type: cell-based
[4] = test system: Streptococcus pneumoniae Park I; test: microbe, parasite or virus in culture; type: cell-based; details: Streptococcus pneumoniae Park I, agar dilution
[5] = test system: Haemophilus influenzae Holt; test: MIC, standard agar-dilution assay, Haemophilus influenzae Holt; type: cell-based; details: Haemophilus influenzae Holt, ampicillin-sensitive strain
[6] = test system: Staphylococcus aureus X1.1; test: MIC, standard agar-dilution assay, Staphylococcus aureus X1.1; type: cell-based
[7] = test system: Staphylococcus aureus X400; test: MIC, standard agar-dilution assay, Staphylococcus aureus X400; type: cell-based
Streptococcus Group 9960 = test: MIC, standard agar-dilution assay, Streptococcus Group 9960; type: cell-based; details: Streptococcus Group 9960, agar dilution
[8] = test system: Staphylococcus aureus S13E; test: MIC, standard agar-dilution assay, Staphylococcus aureus S13E; type: cell-based
[9] = test system: Streptococcus Group D X66; test: MIC, standard agar-dilution assay, Streptococcus Group D X66; type: cell-based; details: Streptococcus Group D X66, agar dilution
[10] = test system: Haemophilus influenzae R252; test: MIC, standard agar-dilution assay, Haemophilus influenzae R252; type: cell-based; details: Haemophilus influenzae R252, ampicillin-resistant strain
[11] = test system: Streptococcus pyogenes C203; test: MIC, standard agar-dilution assay, Streptococcus pyogenes C203; type: cell-based
Streptococcus bovis 80 = test: MIC, broth-dilution microtiter test, Streptococcus bovis 80; type: cell-based; details: Streptococcus bovis 80, broth-dilution microtiter
Excerpt: (§1) The MIC's in Table X were obtained using conventional broth-dilution microtiter tests.

[12] = test system: Pasteurella multocida 60A; test: MIC, broth-dilution microtiter test, Pasteurella multocida 60A; type: cell-based; details: Pasteurella multocida 60A, avian isolate, broth-dilution microtiter
Excerpt: as §1

Mycoplasma gallisepticum = test: MIC, broth-dilution microtiter test, Mycoplasma gallisepticum; type: cell-based
Excerpt: as §1

[13] = test system: Pasteurella hemolytica 22C; test: MIC, broth-dilution microtiter test, Pasteurella hemolytica 22C; type: cell-based; details: Pasteurella hemolytica 22C, broth-dilution microtiter
Excerpt: as §1

[14] = test system: Pasteurella multocida 17E; test: MIC, broth-dilution microtiter test, Pasteurella multocida 17E; type: cell-based; details: Pasteurella multocida 17E, bovine isolate, broth-dilution microtiter
Excerpt: as §1

Staphylococcus aureus = test: MIC, broth-dilution microtiter test, Staphylococcus aureus; type: cell-based
Excerpt: as §1

Mycoplasma hyorhinis = test: MIC, broth-dilution microtiter test, Mycoplasma hyorhinis; type: cell-based
Excerpt: as §1

[15] = test system: Streptococcus pyogenes C203; test: In vivo protection of mice experimentally infected with S. pyogenes C203; details: mice, doses given 1 and 4 hours post-infection
Protocol: The C-20 modified derivatives of this invention have shown in vivo antimicrobial activity against experimentally-induced infections in laboratory animals. When two doses of test compound were administered to mice experimentally infected with S. pyogenes C203, the activity observed was measured as an ED50 value [effective dose in mg/kg to protect 50% of the test animals: see Warren Wick, et al., J. Bacteriol. 81, 233-235 (1961)].

[16] = Staphylococcus epidermidis EPI1, agar dilution
[17] = Staphylococcus epidermidis EPI2, agar dilution
[18] = Staphylococcus aureus V41, penicillin-resistant strain, agar dilution
[19] = Staphylococcus aureus X1.1, agar dilution
[20] = Staphylococcus aureus X400, methicillin-resistant strain, agar dilution
[21] = Staphylococcus aureus S13E, agar dilution
[22] = Streptococcus pyogenes C203, agar dilution
[23] = Mycoplasma gallisepticum, broth-dilution microtiter
[24] = Mycoplasma hyorhinis, broth-dilution microtiter

| Structure (SMILES) | MIC [1, 16] | MIC [2, 17] | MIC [3, 18] | MIC [4] | MIC ([5]; agar dilution) | MIC [6, 19] | MIC [7, 20] | MIC (Streptococcus Group 9960) | MIC [8, 21] | MIC [9] | MIC ([10]; agar dilution) | MIC [11, 22] | ED50, Oral [15] | ED50, Subcutaneous [15] | MIC (Streptococcus bovis 80) | MIC [12] | MIC (Mycoplasma gallisepticum; [23]) | MIC [13] | MIC [14] | MIC (Staphylococcus aureus; broth-dilution microtiter) | other results |
| --- | --- | --- | --- | --- | --- | --- | --- | --- | --- | --- | --- | --- | --- | --- | --- | --- | --- | --- | --- | --- | --- |
| CC(=O)O.CC(=O)O.CCC1OC(=O)CC(O)C(C)C(OC2OC(C)C(O)C(N(C)C)C2O)C(CCN)CC(C)C(=O)C=CC(C)=CC1COC1OC(C)C(O)C(OC)C1OC (centres unmarked) [Compound 51b, 20-DH-DO-20-Aminodesmycosin diacetate] | 8 µg/mL | 2 µg/mL | 4 µg/mL | 16 µg/mL | 128 µg/mL | 4 µg/mL | 8 µg/mL | 128 µg/mL | 4 µg/mL | 128 µg/mL | -- (Not active at 128 mcg/ml, the highest level tested) |  |  |  |  |  |  |  |  |  |  |
| CCC1OC(=O)CC(O)C(C)C(OC2OC(C)C(O)C(N(C)C)C2O)C(CCNC(=O)COc2ccccc2)CC(C)C(=O)C=CC(C)=CC1COC1OC(C)C(O)C(OC)C1OC (centres unmarked) [Compound 51c, 20-DH-DO-20-(N-phenoxyacetyl)aminodesmycosin] | 0.25 µg/mL (≈ 0.276 µM) | 0.12 µg/mL (≈ 0.132 µM) | 0.25 µg/mL (≈ 0.276 µM) | 0.25 µg/mL (≈ 0.276 µM) | 8 µg/mL (≈ 8.82 µM) | 0.25 µg/mL (≈ 0.276 µM) | 0.5 µg/mL (≈ 0.551 µM) | 1 µg/mL (≈ 1.1 µM) | 0.25 µg/mL (≈ 0.276 µM) | 1 µg/mL (≈ 1.1 µM) | 8 µg/mL (≈ 8.82 µM) | 0.25 µg/mL (≈ 0.276 µM) |  |  |  |  |  |  |  |  |  |
| CCC1OC(=O)CC(O)C(C)C(OC2OC(C)C(OC3CC(C)(O)C(O)C(C)O3)C(N(C)C)C2O)C(CCI)CC(C)C(=O)C=CC(C)=CC1COC1OC(C)C(O)C(O)C1OC (centres unmarked) [Compound 52, 20-DH-DO-20-Iodomacrocin] |  |  |  |  |  |  |  |  |  |  |  |  |  |  |  |  |  |  |  |  | MIC ([1]; Staphylococcus epidermidis, EPI1): 2 µg/mL (≈ 1.97 µM); MIC ([2]; Staphylococcus epidermidis, EPI2): 2 µg/mL (≈ 1.97 µM); MIC ([3]; Staphylococcus aureus, V41): 2 µg/mL (≈ 1.97 µM); MIC (Streptococcus bovis 80; Streptococcus equinus, read-out: MIC): 50 µg/mL (≈ 49.3 µM); MIC ([12]; read-out: MIC): > 50 µg/mL; MIC (Mycoplasma gallisepticum; Mycoplasmoides gallisepticum): 3.12 µg/mL (≈ 3.08 µM); MIC ([4]; read-out: MIC): 16 µg/mL (≈ 15.8 µM); MIC ([11]; Streptococcus pyogenes, C203): 4 µg/mL (≈ 3.94 µM); MIC ([5]; read-out: MIC): > 128 µg/mL; MIC ([6]; Staphylococcus aureus, X1.1): 2 µg/mL (≈ 1.97 µM); MIC ([7]; Staphylococcus aureus, X400): 8 µg/mL (≈ 7.89 µM); MIC (Streptococcus Group 9960; GROUP9960, read-out: MIC): 128 µg/mL (≈ 126 µM); MIC ([13]; read-out: MIC): > 50 µg/mL; MIC ([14]; read-out: MIC): > 50 µg/mL; MIC (Staphylococcus aureus): 12.5 µg/mL (≈ 12.3 µM); MIC ([8]; Staphylococcus aureus, S13E): 4 µg/mL (≈ 3.94 µM); MIC (Mycoplasma hyorhinis; Mycoplasma): 50 µg/mL (≈ 49.3 µM); MIC ([9]; read-out: MIC): 128 µg/mL (≈ 126 µM); MIC ([10]; read-out: MIC): > 128 µg/mL |
| CCC(=O)OC1C(OC2C(CCN3C(=O)c4ccccc4C3=O)CC(C)C(=O)C=CC(C)=CC(COC3OC(C)C(O)C(OC)C3OC)C(CC)OC(=O)CC(O)C2C)OC(C)C(OC2CC(C)(O)C(O)C(C)O2)C1N(C)C (centres unmarked) [Compound 62, 20-DH-DO-20-N-Phthalimido-2'-O-propionyltylosin] | 1 µg/mL (≈ 0.906 µM) | 1 µg/mL (≈ 0.906 µM) | 1 µg/mL (≈ 0.906 µM) | 2 µg/mL (≈ 1.81 µM) | -- (Not active at 128 mcg/ml, the highest level tested) | 1 µg/mL (≈ 0.906 µM) | 2 µg/mL (≈ 1.81 µM) | -- (Not active at 128 mcg/ml, the highest level tested) | 1 µg/mL (≈ 0.906 µM) | -- (Not active at 128 mcg/ml, the highest level tested) | -- (Not active at 128 mcg/ml, the highest level tested) |  | 66 mg/kg × 2 | > 6.3 mg/kg × 2 | 12.5 µg/mL (≈ 11.3 µM) | -- (Not active at 50 mcg/ml, the highest level tested) | 1.56 µg/mL (≈ 1.41 µM) | -- (Not active at 50 mcg/ml, the highest level tested) | -- (Not active at 50 mcg/ml, the highest level tested) | 3.12 µg/mL (≈ 2.83 µM) | MIC (Mycoplasma hyorhinis; [24]): 50 µg/mL (≈ 45.3 µM) |
| CCC(=O)OC1C(OC2C(CCCl)CC(C)C(=O)C=CC(C)=CC(COC3OC(C)C(O)C(OC)C3OC)C(CC)OC(=O)CC(O)C2C)OC(C)C(OC2CC(C)(O)C(O)C(C)O2)C1N(C)C (centres unmarked) [Compound 63, 20-DH-DO-20-Chloro-2'-O-propionyltylosin] | 1 µg/mL (≈ 1.01 µM) | 1 µg/mL (≈ 1.01 µM) | 1 µg/mL (≈ 1.01 µM) | 16 µg/mL (≈ 16.1 µM) | -- (Not active at 128 mcg/ml, the highest level tested) | 1 µg/mL (≈ 1.01 µM) | 2 µg/mL (≈ 2.01 µM) | -- (Not active at 128 mcg/ml, the highest level tested) | 1 µg/mL (≈ 1.01 µM) | -- (Not active at 128 mcg/ml, the highest level tested) | -- (Not active at 128 mcg/ml, the highest level tested) | 0.5 µg/mL (≈ 0.504 µM) | 22 mg/kg × 2 | > 6.3 mg/kg × 2 | 25 µg/mL (≈ 25.2 µM) | -- (Not active at 50 mcg/ml, the highest level tested) | 1.56 µg/mL (≈ 1.57 µM) | -- (Not active at 50 mcg/ml, the highest level tested) | -- (Not active at 50 mcg/ml, the highest level tested) | 6.25 µg/mL (≈ 6.3 µM) | MIC (Mycoplasma hyorhinis; [24]): 50 µg/mL (≈ 50.4 µM) |
